The numbers were not newly measured in US20090104212A1, “METHODS AND SYSTEMS FOR TREATING CELL PROLIFERATION DISORDERS USING TWO-PHOTON SIMULTANEOUS ABSORPTION” (Immunolight, priority 2007, published 2009), which cites them from elsewhere.

Where two headings read alike, the source gives them in different places. Non-standard residues stand in square brackets, D forms with d. Residues, ends and D or L forms follow the SMILES beside them. Bpa = N[CH](Cc1ccc(C(=O)c2ccccc2)cc1)C(=O)O; 2Nal = N[CH](Cc1ccc2ccccc2c1)C(=O)O; Aib = CC(C)(N)C(=O)O

One series deals with tumors. Conditions: in vivo.
The conditions of series [1]: for kSET (Average): average over Λex 224, 266, 280 nm.

For `CC(=O)[O-].CC(=O)[O-].CCc1c(CC)c2cc3nc(cnc4cc(OCCOCCOCCOC)c(OCCOCCOCCOC)cc4ncc4nc(cc1[n-]2)C(CCCO)=C4C)C(C)=C3CCCO.O.[Lu+3]` [Lutetium texahyrin, Motexafin lutetium], the “selectivity for tumors compared to normal tissues” value in the series with tumors is reported as “one of the greatest reported selectivities for tumors”. For the same compound, the “duration of skin photosensitivity” value (clinical use) was 24 to 48 h. For the setting “in vivo”, the Length of photosensitization is 24 to 48 h.
On to `CC(NC(=O)C(C)(C)NC(=O)C(Cc1ccc(C(=O)c2ccccc2)cc1)NC(=O)C(C)(C)NC(=O)C(C)NC(=O)C(C)(C)NC(=O)C(Cc1ccc2ccccc2c1)NC(=O)C(C)(C)N)C(=O)O` (centres unmarked) [Compound 1B] (H-[Aib][2Nal][Aib]A[Aib][Bpa][Aib]A-OH; configuration not given here), for which the results for the ESSET in series [1] (Λex 224 nm), in series [1] (Λex 266 nm) and in series [1] (Λex 280 nm) were 96.3, 95 and 94, respectively. The kSET in series [1] (Λex 224 nm) was 2.44e+08 s⁻¹; in series [1] (Λex 266 nm) it was 1.8e+08 s⁻¹; in series [1] (Λex 280 nm), 1.36e+08 s⁻¹.
For the compound `CC(NC(=O)C(C)(C)NC(=O)C(Cc1ccc(C(=O)c2ccccc2)cc1)NC(=O)C(C)(C)NC(=O)C(Cc1ccc2ccccc2c1)NC(=O)C(C)(C)NC(=O)C(C)NC(=O)C(C)(C)N)C(=O)O` (single isomer, unassigned) [Compound 2B], the “kSET (Average)” value in series [1] is 3.9e+07 s⁻¹. For the same compound, the ESSET in series [1] (Λex 224 nm) is listed as 77; in series [1] (Λex 266 nm), 81; in series [1] (Λex 280 nm), 83. Besides, the kSET is 3.1e+07 s⁻¹ in series [1] (Λex 224 nm), 3.9e+07 s⁻¹ in series [1] (Λex 266 nm) and 4.7e+07 s⁻¹ in series [1] (Λex 280 nm).
As to `CC1NC(=O)C(C)(C)NC(=O)C(Cc2ccc(C(=O)c3ccccc3)cc2)NC(=O)C(C)(C)NC(=O)C(C)NC(=O)C(C)(C)NC(=O)C(Cc2ccc3ccccc3c2)NC(=O)C(C)(C)NC1=O` (centres unmarked) [Compound 1A] (cyclo([Aib][2Nal][Aib]A[Aib][Bpa][Aib]A); configuration not given here), in series [1], the “kSET (Average)” value is 3.67e+07 s⁻¹. Moreover, the results for the ESSET in series [1] (Λex 224 nm), in series [1] (Λex 266 nm) and in series [1] (Λex 280 nm) were 80, 79 and 79, respectively. Further, the kSET is 3.8e+07 s⁻¹ in series [1] (Λex 224 nm), 3.6e+07 s⁻¹ in series [1] (Λex 266 nm) and 3.6e+07 s⁻¹ in series [1] (Λex 280 nm).
